From patent US10918714B2, “Human iNKT cell activation using glycolipids with altered glycosyl groups” (Academia Sinica, priority 2013, dated 2021)
“Also recorded” adds a separate entry of the source. One block for each compound: values may come before it.

How the values were obtained:
B6 wild type mice = assay: Murine serum cytokine/chemokine secretion after i.v. glycolipid, B6 WT mice; type: in vivo; details: i.v. 1 μg/mouse; for induction of serum cytokines/chemokines: sera 2 and 18 hr after injection
Method: (§1) All the glycolipids were dissolved in 100% DMSO at a concentration of 1-2 mg/ml. For in vivo experiments, all compounds were diluted to 10 μg/ml in saline just before injection of 100 μl diluted glycolipid or 100 μl 1% DMSO into mice. Pathogen-free C57BL/6 female mice aged 6-12 weeks were obtained from the National Laboratory Animal Center (Taipei, Taiwan). Jα18 knockout (KO) B6 mice were the gifts from Dr. Masaru Taniguchi (RIKEN Research Center for Allergy and Immunology, Yokohama, Japan). All the mice were maintained in pathogen free vivarium of Institute of Cellular and Organismic Biology, Academia Sinica (Taipei, Taiwan).
(§2) B6 WT or Jα18 KO mice were intravenously injected with vehicle or glycolipids at 0.1 or 1 μg/mouse. Serum was collected at 2 and 18 h after injection for measurement of cytokines/chemokines by Beadlyte® Mouse Cytokine kit (Millipore, N.Y.) and read by a Luminex® 200™ system (Luminex, Austin, Tex.).

B6 WT mice splenocytes = assay: FACS analyses of WT mouse immune cells (splenocytes) after glycolipid stimulation; type: in vivo; details: 1 μg/mouse, 72 hr post-injection
Method: (§3) B6 WT or Jα18 KO mice treated with specific glycolipid (1 μg/mouse) or vehicle (1% DMSO in PBS) were sacrificed at 72 hr post-injection and their spleens were harvested. After pressing spleens through 70 um strainer and lysis of erythrocytes, the nucleated cells were resuspended in PBS buffer containing azide (0.05%) and stained with antibodies recognizing the indicated cell surface antigens for 30 min at 4° C. After washing, the splenocytes were subjected to FACS analysis. The antibodies against CD3, CD4, CD8β, CD11c, CD80, and CD86 were obtained from BD Bioscience-Pharmingen.

mouse iNKT TCR = mouse iNKT TCR (Mus musculus, UniProt A0A0B4J1J9+P11609); assay: Binding avidity of mCD1d-loaded glycolipids to Vα14+ iNKT cells (ternary interaction); details: for Kd: mCD1d-glycolipid complex, DN3A4-1.2 murine iNKT hybridoma cells
Method: Briefly, murine CD1d:Ig dimer (BD Biosciences PharMingen, San Diego, Calif.) was loaded with glycolipids at a molar ratio of 1:10 or vehicle for overnight at 37° C. Murine 1.2 Vα14^+ iNKT cells were incubated with various doses of dimer-glycolipid complex in buffer containing azide (0.05%) for 30 min at 4° C. These cells were then stained with anti-mouse IgG1-PE mAb (A85-1) for another 30 min at 4° C., followed by washing, fixation with 4% paraformaldehyde (PFA), and the bound mCD1d dimer complexes were detected by flow cytometry. The binding curve and linear fit of the Scatchard transformation were plotted by Graphpad Prism software.

Jα18 knockout mice [1] = assay: Murine serum cytokine/chemokine secretion after i.v. glycolipid, Jα18 knockout mice; type: in vivo; details: Jα18 KO mice, 1 μg/mouse
Method: as §1, §2

[2] = system: Jα18 KO mouse splenocytes; assay: FACS analyses of Jα18 KO mouse immune cells (splenocytes) after glycolipid stimulation; type: in vivo; details: Jα18 KO mice, 3 days after i.v. injection, 1 μg/mouse
Method: as §3

[3] = system: Human naïve Vα24+ iNKT cells; assay: Expansion of human iNKT cells; type: cell-based; details: DCs pulsed with glycolipid at 100 ng/ml, IL-2 culture
Method: Human naïve Vα24^+ iNKT cells were cultured with autologous immature CD14^+ DCs pulsed with the indicated glycolipid at 100 ng/ml or DMSO on day 2 for 18 h. On day 3, the suspension cells were transferred to a new dish, cultured in the presence of 50 U/ml IL-2 (R & D Systems), and replenished with fresh medium every 3 days. The percentage of Vα24^+/Vβ11^+ cells was determined by flow cytometry on day 9. The total cell number after expansion was calculated with the Guava ViaCount reagent (Millipore, USA) and detected by the Guava system with CytoSoft™ software containing the ViaCount module (Millipore, USA).
Vα24^+ iNKT cells and CD14^+ cells were isolated from peripheral blood cells as described previously.^19 Immature DCs were generated from the CD14^+ cells after 2-day incubation in the presence of 300 U/ml GM-CSF (R & D Systems) and 100 U/ml IL-4 (R& D Systems).

mCD1d dimer = molecular target: T1, mCD1d dimer (Mus musculus, UniProt P11609); assay: Binding strength of the binary complex between mCD1d and glycolipid (L363 antibody ELISA); details: KD from Scatchard transformation (FIG. 10D)
T1 construct: Ig fusion (dimer); purchased BD Biosciences PharMingen
T1 sequence (P11609 19-305 limits assumed): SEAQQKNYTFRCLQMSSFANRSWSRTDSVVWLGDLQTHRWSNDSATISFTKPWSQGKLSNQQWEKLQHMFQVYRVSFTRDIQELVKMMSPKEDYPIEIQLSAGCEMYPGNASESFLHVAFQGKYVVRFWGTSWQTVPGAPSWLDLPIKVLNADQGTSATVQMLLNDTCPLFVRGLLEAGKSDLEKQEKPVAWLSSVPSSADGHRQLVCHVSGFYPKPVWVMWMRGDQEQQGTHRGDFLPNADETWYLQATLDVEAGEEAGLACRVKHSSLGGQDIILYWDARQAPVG
T1 sequence (P01887 21-119 partner): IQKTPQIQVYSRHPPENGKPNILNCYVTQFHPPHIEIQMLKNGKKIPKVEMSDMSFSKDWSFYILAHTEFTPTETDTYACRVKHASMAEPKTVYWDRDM
Method: Different concentrations of mCD1d^di-glycolipid complexes coated on the ELISA plate were incubated with the saturated amounts of L363 antibody (BioLegend) conjugated with biotin, followed by streptavidin-HRP detection and ELISA measurement. The KD between L363 antibody and the indicated mCD1d^di-glycolipid complex was calculated from the linear regression of the Scatchard transformation of the L363 antibody binding curve using GraphPad Prism software. […] Next, the KD of the binary complex was determined as follows. Different concentrations of glycolipids were incubated with fixed amounts of mCD1d dimer at 37° C. overnight, and then mCD1d^di-glycolipid complexes were coated on the 96 well ELISA plate at 4° C. overnight. After washing and blocking with BSA at room temperature (RT) for 1 hr, L363 antibody conjugated with biotin was added for 30 min at RT, followed by incubation with streptavidin-HRP for 30 min at RT and detection with an ELSIA reader. KD values of the binary complex were calculated from the linear regression of the Scatchard transformation of the L363 antibody binding curve.

C1-pulsed splenocytes = assay: CD1d dimer staining of in vivo C1-pulsed splenocytes; type: binding; details: B6 WT splenocytes 3 days after C1 1 μg/mouse, CD3+/CD45R− gate
Method: FIGS. 11A-D show: CD1d dimer staining of in vivo C1-pulsed splenocytes. B6 WT splenocytes (n=3) were harvested 3 days after injection with C1 (1 μg/mouse) and stained with CD3, CD45R and the indicated dimer complex conjugated with RPE for 1 hr at 4 degrees Celsius. (11A) CD3+/CD45R− cells were gated to analyze the dimer staining. (11B) unloaded dimer was used as the control. (11C) mCD1d dimer loaded with 7DW8-5-Glc stained 17.1±0.8% of C1-pulsed splenocytes. (11D) mCD1d dimer loaded with 7DW8-5 stained 36.2±5.0% of C1-pulsed splenocytes.

human iNKT TCR = human iNKT TCR (Homo sapiens, UniProt A0A0B4J240+P15813); assay: Binding avidity of hCD1d-loaded glycolipids with Vα24+ iNKT cells (ternary interaction)
Method: Binding avidity of human CD1d-glycolipid complexes to Vα24^+ iNKT cells expanded by 7DW8-5 at 100 ng/ml was determined as described previously.^19
(§4) Vα24^+ iNKT cell lines expanded with 7DW8-5 or C1 were generated as follows. After irradiation with 2,000 rad, the immature DCs were cocultured with syngenic Vα24^+ iNKT cells in the presence of 7DW8-5 or C1 at 100 ng/ml for 1 day. The cells were expanded in the presence of 50 U/ml IL-2 for 10-14 days after lipid removal. The same procedures were repeated once for further stimulation and expansion of iNKT cells.

[4] = system: Murine DN3A4-1.2 Vα14+ iNKT hybridoma cells; assay: mCD1d vs. hCD1d swapping assay, murine iNKT cells; type: cell-based, mouse; details: presented by mCD1d (A20-CD1d) or hCD1d (HeLa-CD1d), 1, 0.1, 0.01 μg/ml
Method: (§5) Murine DN3A4-1.2 Vα14^+ iNKT hybridoma cells or C1-expanded Vα24^+ iNKT cells were pulsed with the indicated glycolipid antigen presented either by mCD1d (A20-CD1d cells) or hCD1d (HeLa-CD1d cells) at 1, 0.1, and 0.01 μg/ml. After 18 hr, the supernatants were harvested for the measurement of cytokine secretion(s). IL-2 released from Vα14^+ iNKT cells was determined by ELISA assay. IFN-γ, IL-4 and IL-2 secreted from Vα24^+ iNKT cells were detected using Beadlyte® Human Cytokine kit (Millipore, N.Y., USA) and Luminex® 200™ reading system.

[5] = system: C1-expanded Vα24+ iNKT cells; assay: mCD1d vs. hCD1d swapping assay, human iNKT cells; type: cell-based; details: presented by mCD1d (A20-CD1d) or hCD1d (HeLa-CD1d), 1, 0.1, 0.01 μg/ml
Method: as §4, §5

murine iNKT cell = details: as compared to αGalCer; cited from earlier work
human iNKT cell = details: as compared to αGalCer; cited from earlier work
Jα18 knockout mice [6] = details: Jα18 KO mice; cited from earlier work

- Kd (mouse iNKT TCR): 7.96 ± 1.27 nM
SMILES: CC[C@@H](O)[C@@H](O)[C@H](CO[C@H]1OC(CO)[C@@H](O)C(O)C1O)NC(=O)Cc1ccc(Oc2ccc(F)cc2)cc1 (stereo partly drawn) [Compound C34-Glc]
- induction of serum cytokines/chemokines (B6 wild type mice): triggered both cytokines and chemokines; also recorded: better than 7DW8-5-Glc
- CD80+ DCs activated, as compared to 7DW8-5-Glc (B6 WT mice splenocytes): ~2 fold
- CD86+ DCs activated, as compared to 7DW8-5-Glc (B6 WT mice splenocytes): ~2 fold

- Kd (mouse iNKT TCR): 5.14 ± 0.11 nM
SMILES: CCC(=O)N[C@@H](CO[C@H]1OC(CO)[C@@H](O)C(O)C1O)[C@H](O)[C@H](O)CC (stereo partly drawn) [Compound C1-Glc]
- induction of serum cytokines/chemokines (B6 wild type mice): triggered both cytokines and chemokines; also recorded: better than 7DW8-5-Glc
- CD80+ DCs activated, as compared to 7DW8-5-Glc (B6 WT mice splenocytes): ~3.5 fold
- CD86+ DCs activated, as compared to 7DW8-5-Glc (B6 WT mice splenocytes): ~3 fold
- total splenocytes and DCs expanded, as compared to 7DW8-5-Glc (B6 WT mice splenocytes): ~1.3 fold
- murine iNKT cell proliferation (murine iNKT cell): less stimulatory
- human iNKT cell proliferation (human iNKT cell): more potent

Second part, the compound before the results:

SMILES: CC[C@@H](O)[C@@H](O)[C@H](CO[C@H]1OC(CO)[C@@H](O)C(O)C1O)NC(=O)Cc1ccc(F)cc1 (stereo partly drawn) [Compound 7DW8-5-Glc]
- levels of KC, MCP-1, IP-10 and MIG chemokines (B6 wild type mice; sera 2 and 18 hr): relatively high levels
- levels of Th1 and Th2 cytokines (B6 wild type mice; sera 2 and 18 hr): very low levels
- secretion of chemokines including KC, MCP-1, IP-10 and MIG (Jα18 knockout mice [1]): triggered the secretion
- induction of cytokines (Jα18 knockout mice [1]; sera 2 and 18 hr after injection): no induction of cytokines
- CD11chi monocyte-derived DCs expansion and activation [2]: significantly expanded and activated
- total splenocytes, CD4+ T and CD8+ T cells [2]: No significant differences
- expanding human iNKT cells in vitro (number of expanded iNKT cells on day 9) [3]: significantly (p=0.0009) better than 7DW8-5
- binding avidity to mCD1d dimer relative to αGalCer (mCD1d dimer): ~20 fold
- binding avidity of the murine ternary complex versus C34-Glc (mouse iNKT TCR): comparable
- C1-pulsed splenocytes stained by mCD1d dimer loaded with glycolipid (C1-pulsed splenocytes): 17.1±0.8%

SMILES: CCCCCCCCCCCCCC[C@@H](O)[C@@H](O)[C@H](CO[C@H]1O[C@H](CO)[C@@H](O)[C@H](O)[C@@H]1O)NC(=O)CCCCCCCCCCc1ccc(F)cc1 [Compound 7DW8-5-Man]
- induction of serum cytokines/chemokines (B6 wild type mice): failed to induce any cytokines/chemokines
- expansion of immune cells (B6 WT mice splenocytes): did not expand any types of immune cells
- staining of murine iNKT cells with CD1d-glycolipid dimer (mouse iNKT TCR): lack of staining
- staining of human iNKT cells with CD1d-glycolipid dimer (human iNKT TCR): lack of staining
- cytokine secretion from mouse iNKT cells [4]: could not stimulate
- cytokine secretion from human iNKT cells [5]: could not stimulate

SMILES: CCCCCCCCCCCCCCCCCCCCCCCCCC(=O)N[C@@H](CO[C@H]1O[C@H](CO)[C@H](O)[C@H](O)[C@H]1O)[C@H](O)[C@H](O)CCCCCCCCCCCCCC [Compound C1, α-galactosylceramide, reference compound]
- Kd (mouse iNKT TCR): 1.24 ± 0.003 nM
- Kd (human iNKT TCR; hCD1d-glycolipid complex, human Vα24+/Vβ11+ iNKT cells): 16.4 ± 4.2 nM
- IFN-γ in the sera (Jα18 knockout mice [6]): not secreted
